Values quoted from earlier work in patent US11260055B2, “Oral pharmaceutical composition of lurasidone and preparation thereof” (PIRAMAL PHARMA LIMITED, priority 2017, dated 2022).

Settings: in water

O=C1[C@@H]2[C@H]3CC[C@H](C3)[C@@H]2C(=O)N1C[C@@H]1CCCC[C@H]1CN1CCN(c2nsc3ccccc23)CC1 [Lurasidone]
Solubility: poor water solubility
